pIC50: −log10 of the molar value. Where a name gives a salt, the structure may show the parent alone. Read-outs that look alike come from different tables or passages of the source.
Assays:
HT29 [1] = experiment: Cytotoxicity in vitro in the presence and absence of elastase (MTT); assay type: cell-based, human
Description: (§1) Cultivation of cells was performed according to standard procedures with the media recommended by the provider. The cells, in a total volume of 100 μL, were seeded in a 96-well plate with a white bottom (#3610). After a 24 h incubation period at 37° C. and […], the medium was exchanged by adding 90 μL fresh medium. The treatment started by adding the test compound in 10 μL of culture medium to the cells in triplicates. Concentrations ranging from 10^−5 M to 10^−13 M were chosen. Two identically treated sets of samples were prepared. One set was treated with the test compound alone, whereas to the second set the compound and 10 nM elastase was added followed by a 72 h incubation period at 37° C. and 5% CO2. The proliferation was detected using the MTT assay (ATCC). At the end of the incubation period the MTT reagent was added to all samples for 4 h. Lysis of the cells followed by addition of the detergent was done overnight. The formed dye was detected at 570 nm. The proliferation of untreated but otherwise identically handled cells was define as the […].

NCI H292 [2] = experiment: as above; assay type: cell-based, human
Description: as §1

786-O [3] = experiment: as above; assay type: cell-based, human
Description: as §1

SUM149 [4] = experiment: as above; assay type: cell-based
Description: as §1

HT29 [5] = experiment: Cytotoxicity assay (Version 2), automated, AC50, with or without elastase; assay type: cell-based, human
Description: as §1
(§2) The Cytotoxicity assay (Version 2) was performed as above described. Some changes were applied as the assays were performed in an automated fashion and the IC50 values determination was changed. Here the change in metabolic activity of the cells, in percent, was calculated by normalization of the measured values to the absorbance values of medium containing wells without cells (=−100%) and the absorbance of the DMSO-treated cells (=0%). AC50 values (activity concentration at −50%) were determined by means of a 4 parameter Hill-fit using GeneData Screener software.

NCI H292 [6] = experiment: as above; assay type: cell-based, human
Description: as §1, §2

786-O [7] = experiment: as above; assay type: cell-based, human
Description: as §1, §2

SUM149 [8] = experiment: as above; assay type: cell-based
Description: as §1, §2

[9] = read-out: NCI H292 IC 50 w elastase
[10] = read-out: 786-O IC50 w elastase
[11] = read-out: SUM149 IC50 w elastase

| Structure (SMILES) | pIC50 (HT29 [1]; read-out: HT29 IC50 w elastase) | pIC50 (HT29 [1]; read-out: HT29 IC50 w/o) | pIC50 (NCI H292 [2]; [9]) | pIC50 (NCI H292 [2]; read-out: NCI H292 IC 50 w/o) | pIC50 (786-O [3]; [10]) | pIC50 (786-O [3]; read-out: 786-O IC50 w/o) | pIC50 (SUM149 [4]; [11]) | pIC50 (SUM149 [4]; read-out: SUM149 IC50 w/o) | also measured |
| --- | --- | --- | --- | --- | --- | --- | --- | --- | --- |
| CCCNC(=O)Nc1cccc(S(=O)(=O)Nc2cccc([C@@H](CC(=O)O)NC(=O)Nc3ccc(NC(=O)NCCOCCOCCOCCC(=O)N[C@@H](CC(=O)O)C(=O)N4CCC[C@H]4C(=O)N[C@H](C(=O)O[C@]4(CC)C(=O)OCc5c4cc4n(c5=O)Cc5c-4nc4cc(F)c(C)c6c4c5[C@@H](NC(=O)OCc4ccccc4)CC6)C(C)C)cc3)c2)c1 [Compound 3, (1S,9S)-1-{[(benzyloxy)carbonyl]amino}-9-ethyl-5-fluoro-4-methyl-10,13-dioxo-2,3,9,10,13,15-hexahydro-1H,12H-benzo[de]pyrano[3′,4′:6,7] indolizino[1,2-b]quinolin-9-yl N-(14-{4-[({(1R)-2-carboxy-1-[3-({3-[(propylcarbamoyl)amino]benzene-1-sulfonyl}amino)phenyl]ethyl}carbamoyl)amino]anilino}-14-oxo-4,7,10-trioxa-13-azatetradecanan-1-oyl)-L-alpha-aspartyl-L-prolyl-L-valinate] | 9.00 to 10.00 | < 7.00 | 10.00 to 11.00 | 8.00 to 8.96 | 9.00 to 10.00 | 7.00 to 8.00 | 10.00 to 11.00 | 7.00 to 8.00 | – |
| CCCNC(=O)Nc1cccc(S(=O)(=O)Nc2cccc([C@@H](CC(=O)O)NC(=O)Nc3ccc(NC(=O)NCCN(C)CCN(C)CCN(C)CC(=O)N[C@@H](CC(N)=O)C(=O)N4CCC[C@H]4C(=O)N[C@H](C(=O)O[C@]4(CC)C(=O)OCc5c4cc4n(c5=O)Cc5cc6cc7c(cc6nc5-4)OCO7)C(C)C)cc3)c2)c1 [Compound 6, (7S)-7-ethyl-8,11-dioxo-7,8,11,13-tetrahydro-2H,10H-[1,3]dioxolo[4,5-g]pyrano[3′,4′:6,7] indolizino[1,2-b]quinolin-7-yl N-{2-[{2-[{2-[({4-[({(1R)-2-carboxy-1-[3-({3-[(propylcarbamoyl)amino]benzene-1-sulfonyl}amino)phenyl]ethyl}carbamoyl)amino]phenyl}carbamoyl)amino]ethyl}(methyl)amino]ethyl}(methyl)amino]ethyl}-N-methylglycyl-L-asparaginyl-L-prolyl-L-valinate] | – | – | – | – | – | – | – | – | pIC50 (HT29 [1]; HT29 cells, with 10 nM elastase, 72 h, MTT, read-out: HT29 IC50 w elastase): 10.00 to 11.00; pIC50 (HT29 [1]; HT29 cells, without elastase, 72 h, MTT, read-out: HT29 IC50 w/o): 8.00 to 8.96; pIC50 (NCI H292 [2]; NCI H292 cells, with 10 nM elastase, 72 h, MTT, read-out: NCI H292 IC 50 w elastase): 10.00 to 11.00; pIC50 (NCI H292 [2]; NCI H292 cells, without elastase, 72 h, MTT, read-out: NCI H292 IC 50 w/o): 8.00 to 8.96; pIC50 (786-O [3]; 786-O cells, with 10 nM elastase, 72 h, MTT, read-out: 786-O IC50 w elastase): 10.00 to 11.00; pIC50 (786-O [3]; 786-O cells, without elastase, 72 h, MTT, read-out: 786-O IC50 w/o): 8.00 to 8.96; pIC50 (SUM149 [4]; SUM149 cells, with 10 nM elastase, 72 h, MTT, read-out: SUM149 IC50 w elastase): > 11.00; pIC50 (SUM149 [4]; SUM149 cells, without elastase, 72 h, MTT, read-out: SUM149 IC50 w/o): 9.00 to 10.00 |
| CCCNC(=O)Nc1cccc(S(=O)(=O)Nc2cccc([C@H](CC(=O)O)NC(=O)Nc3ccc(NC(=O)NCCOCCOCCOCCC(=O)N[C@@H](CC(=O)O)C(=O)N4CCC[C@H]4C(=O)N[C@H](C(=O)O[C@]4(CC)C(=O)OCc5c4cc4n(c5=O)Cc5c-4nc4cc(F)c(C)c6c4c5[C@@H](NC(C)=O)CC6)C(C)C)cc3)c2)c1 [Compound 13, disodium (1S,9S)-1-acetamido-9-ethyl-5-fluoro-4-methyl-10,13-dioxo-2,3,9,10,13,15-hexahydro-1H,12H-benzo[de]pyrano[3′,4′:6,7]indolizino[1,2-b]quinolin-9-yl 1-[(2S)-2-(carboxylatomethyl)-17-{4-[({(1S)-2-carboxylato-1-[3-({3-[(propylcarbamoyl)amino]benzene-1-sulfonyl}amino)phenyl]ethyl}carbamoyl)amino]anilino}-4,17-dioxo-7,10,13-trioxa-3,16-diazaheptadecanan-1-oyl]-L-prolyl-L-valinate] | 9.00 to 10.00 | < 7.00 | 10.00 to 11.00 | 8.00 to 8.96 | 10.00 to 11.00 | 7.00 to 8.00 | 10.00 to 11.00 | 8.00 to 8.96 | – |
| CCCNC(=O)Nc1cccc(S(=O)(=O)Nc2cccc([C@H](CC(=O)O)NC(=O)Nc3ccc(NC(=O)NCCOCCOCCOCCC(=O)N[C@@H](CC(=O)O)C(=O)N4CCC[C@H]4C(=O)N[C@H](C(=O)O[C@]4(CC)C(=O)OCc5c4cc4n(c5=O)Cc5cc6cc7c(cc6nc5-4)OCO7)C(C)C)cc3)c2)c1 [Compound 15, (7S)-7-ethyl-8,11-dioxo-7,8,11,13-tetrahydro-2H,10H-[1,3]dioxolo[4,5-g]pyrano [3′,4′:6,7]indolizino[1,2-b]quinolin-7-yl N-(14-{4-[({(1S)-2-carboxy-1-[3-({3-[(propylcarbamoyl)amino]benzene-1-sulfonyl}amino)phenyl]ethyl}carbamoyl)amino]anilino}-14-oxo-4,7,10-trioxa-13-azatetradecanan-1-oyl)-L-alpha-aspartyl-L-prolyl-L-valinate-bis sodium salt] | 10.00 to 11.00 | 7.00 to 8.00 | 10.00 to 11.00 | 8.00 to 8.96 | 10.00 to 11.00 | 7.00 to 8.00 | > 11.00 | 8.00 to 8.96 | – |
| CC[C@@]1(O)C(=O)OCc2c1cc1n(c2=O)Cc2c-1nc1cc(F)c(C)c3c1c2[C@@H](N(C)C)CC3 [Compound 18, (1S,9S)-1-(dimethylamino)-9-ethyl-5-fluoro-9-hydroxy-4-methyl-1,2,3,9,12,15-hexahydro-10H,13H-benzo[de]pyrano[3′,4′:6,7]indolizino[1,2-b]quinoline-10,13-dione] | – | – | – | – | – | – | – | – | AC50 (HT29 [5]; Homo sapiens, HT-29, read-out: HT29 AC50 +elastase): 1.1 to 10 nM; AC50 (HT29 [5]; Homo sapiens, HT-29, read-out: HT29 AC50 −elastase): 11 to 100 nM; AC50 (NCI H292 [6]; Homo sapiens, NCI-H292, read-out: NCI H292 AC50 +elastase): 1.1 to 10 nM; AC50 (NCI H292 [6]; Homo sapiens, NCI-H292, read-out: NCI H292 AC50 −elastase): 1.1 to 10 nM; AC50 (786-O [7]; Homo sapiens, 786-0, read-out: 786-O AC50 +elastase): 11 to 100 nM; AC50 (786-O [7]; Homo sapiens, 786-0, read-out: 786-O AC50 −elastase): 11 to 100 nM; AC50 (SUM149 [8]; SUM149, read-out: SUM149 AC50 +elastase): 1.1 to 10 nM; AC50 (SUM149 [8]; SUM149, read-out: SUM149 AC50 −elastase): 1.1 to 10 nM |
| CCCNC(=O)Nc1cccc(S(=O)(=O)Nc2cccc([C@@H](CC(=O)O)NC(=O)Nc3ccc(NC(=O)NCCOCCOCCOCCC(=O)N[C@@H](CC(=O)O)C(=O)N4CCC[C@H]4C(=O)N[C@H](C(=O)O[C@]4(CC)C(=O)OCc5c4cc4n(c5=O)Cc5c-4nc4cc(F)c(C)c6c4c5[C@@H](N(CC)CC)CC6)C(C)C)cc3)c2)c1 [Compound 19, (1S,9S)-1-(diethylamino)-9-ethyl-5-fluoro-4-methyl-10,13-dioxo-2,3,9,10,13,15-hexahydro-1H,12H-benzo[de]pyrano[3′,4′:6,7]indolizino[1,2-b]quinolin-9-yl N-(14-{4-[({(1R)-2-carboxy-1-[3-({3-[(propylcarbamoyl)amino]benzene-1-sulfonyl}amino)phenyl]ethyl}carbamoyl)amino]anilino}-14-oxo-4,7,10-trioxa-13-azatetradecanan-1-oyl)-L-alpha-aspartyl-L-prolyl-L-valinate] | – | – | – | – | – | – | – | – | AC50 (HT29 [5]; HT29 cells, Version 2, with elastase, activity concentration at −50%, read-out: HT29 AC50 +elastase): 11 to 100 nM; AC50 (HT29 [5]; HT29 cells, Version 2, without elastase, activity concentration at −50%, read-out: HT29 AC50 −elastase): > 100 nM; AC50 (NCI H292 [6]; NCI H292 cells, Version 2, with elastase, activity concentration at −50%, read-out: NCI H292 AC50 +elastase): 11 to 100 nM; AC50 (NCI H292 [6]; NCI H292 cells, Version 2, without elastase, activity concentration at −50%, read-out: NCI H292 AC50 −elastase): > 100 nM; AC50 (786-O [7]; 786-O cells, Version 2, with elastase, activity concentration at −50%, read-out: 786-O AC50 +elastase): 1.1 to 10 nM; AC50 (786-O [7]; 786-O cells, Version 2, without elastase, activity concentration at −50%, read-out: 786-O AC50 −elastase): > 100 nM; AC50 (SUM149 [8]; SUM149 cells, Version 2, with elastase, activity concentration at −50%, read-out: SUM149 AC50 +elastase): 1.1 to 10 nM; AC50 (SUM149 [8]; SUM149 cells, Version 2, without elastase, activity concentration at −50%, read-out: SUM149 AC50 −elastase): > 100 nM |

From patent US20250032477A1, “COMPOUNDS, PHARMACEUTICAL COMPOSITIONS, AND METHODS FOR THE TREATMENT, PREVENTION, OR MANAGEMENT OF HYPERPROLIFERATIVE DISORDERS” (VINCERX PHARMA GMBH, priority 2021, published 2025)
